Laboratory results from patent US20230123334A1, “AMINO LIPID COMPOUND, PREPARATION METHOD THEREFOR, AND APPLICATION THEREOF” (SHENZHEN SHENXIN BIOTECHNOLOGY CO., LTD., priority 2020, published 2023).

test system: HEK293 cells; test: Preliminary screening as DNA vectors, GFP transfection of HEK293 cells; type: cell-based; conditions: amino lipid/DOPE liposome with 75 ng plasmid DNA (psin-EGFP-IRES-Puro); number of GFP-expressing cells divided by total nuclei (Hoechst)
Procedure: Cell line: HEK293 cells (ATCC CRL-1573™)
Medium: DMEM supplemented with 10% fetal bovine serum (Invitrogen)
Mode of screening: cell transfection on 96-well plates
Detection (readout): percentage of the number of GFP fluorescent cells relative to the total number of cells (the total number of cells was measured using nucleus dye Hoechst—see FIG. 2). Lipofectamine2000 (Invitrogen) was used as positive control, according to the manufacturer's instructions.
Method: an 8-channel pipette was used for sample addition. The contents shown were for a single well of a 96-well flat plate.
1. The compound (0.01 mmol) prepared in Example 1 was dissolved in 1 mL of anhydrous ethanol. After ultrasonically dissolved, 10 μL of the resultant amino lipid solution in ethanol was taken and mixed with 5 μL of DOPE solution in ethanol (0.01 m), and then to the obtained mixture was added 35 μL of 0.2M sodium acetate buffer (pH 5.6), and 50 μL of liposome solution was prepared by vortex at a constant rotating speed for 30 s. 4 μL was taken from the 50 μL liposome solution and added to 46 μL of 0.02M sodium acetate buffer (pH 5.6), and the final liposome solution was formed by vortex at a constant rotating speed for 30 s. 5 μL was taken from the final liposome solution and mixed with 75 ng plasmid DNA (psin-EGFP-IRES-Puro, Clontech) dissolved in 5 μL of 0.02 M sodium acetate buffer, and was allowed to stay at room temperature for 30 min to form a lipid/DNA transfection complex.
2. 10 μL of the lipid/DNA transfection complex was incubated at room temperature for 30 min, followed by addition of 90 μL of fresh resuspended cells (3-5×10^4 cells) and mixing with a pipette. 100 μL of cells+lipid/DNA complex was transferred to separate wells of a 96-well culture plate immediately, and placed in an incubator containing 5% CO2 at 37° C.
3. Hoechst33258 (Invitrogen) was added at a final concentration of 0.2 μg/mL to the cells 20 to 24 hours after initial cell transfection, and cultured in darkness at 37° C. for 15 min. Afterwards, the cells were washed once with a PBS solution, and then added with medium for culture for 20 to 24 h.
4. The cells were placed in a high-throughput confocal microscope (Molecular Devices ImageXpress), and four visual fields of the image of the cells were captured for each well, and images at three laser wavelengths were captured for each sample: bright field images of cells (FIG. 2(a) and FIG. 2(b)), Hoechst-staining images showing total nuclei (FIG. 2(c) and FIG. 2(d)) and GFP images showing success in transfection with the plasmid DNA and the expression of GFP (FIG. 2(e) and FIG. 2(f)). MetaXpress software was used to separately count the cells in the Hoechst-staining images and GFP images, and then the number of cells expressing GFP was divided by the total number of nuclei to give the absolute cell transfection efficiency. The absolute transfection efficiency was calculated as follows: […]

Structure (SMILES) | Absolute DNA transfection efficiency in HEK293 cells [%]
CCCCCCCCCCCCCCCCNc1nc(NCCN2CCOCC2)nc(SCCCCCC)n1 [S6N16 D2] | 1.4
CCCCCCCCCCCCCCCCNc1nc(NCCN2CCCC2)nc(SCCCCCC)n1 [S6N16 D3] | 19.8
CCCCCCCCCCCCCCCCNc1nc(NCCN2CCCCC2)nc(SCCCCCC)n1 [S6N16 D4] | 2.4
CCCCCCCCCCCCCCCCNc1nc(NCCN2CCN(C)CC2)nc(SCCCCCC)n1 [S6N16 D5] | 19.6
CCCCCCCCCCCCCCCCNc1nc(NCCCN(C)C)nc(SCCCCCC)n1 [S6N16 D6] | 22.8
CCCCCCCCCCCCCCCCNc1nc(NCCN(CC)CC)nc(SCCCCCC)n1 [S6N16 D7] | 2.6
CCCCCCCCCCCCCCCCNc1nc(NCCCN2CCOCC2)nc(SCCCCCC)n1 [S6N16 D8] | 4.2
CCCCCCCCCCCCCCCCNc1nc(NCCCN2CCN(C)CC2)nc(SCCCCCC)n1 [S6N16 D9] | 20.6
CCCCCCCCCCCCCCCCNc1nc(NCC2CCN(C)CC2)nc(SCCCCCC)n1 [S6N16 D10] | 19.7
CCCCCCCCCCCCCCCCCCNc1nc(NCCN(C)C)nc(SCCCCCC)n1 [S6N18 D1] | 21.0
CCCCCCCCCCCCCCCCCCNc1nc(NCCN2CCOCC2)nc(SCCCCCC)n1 [S6N18 D2] | 2.5
CCCCCCCCCCCCCCCCCCNc1nc(NCCN2CCCC2)nc(SCCCCCC)n1 [S6N18 D3] | 21.9
CCCCCCCCCCCCCCCCCCNc1nc(NCCN2CCCCC2)nc(SCCCCCC)n1 [S6N18 D4] | 3.5
CCCCCCCCCCCCCCCCCCNc1nc(NCCN2CCN(C)CC2)nc(SCCCCCC)n1 [S6N18 D5] | 15.4
CCCCCCCCCCCCCCCCCCNc1nc(NCCCN(C)C)nc(SCCCCCC)n1 [S6N18 D6] | 21.8
CCCCCCCCCCCCCCCCCCNc1nc(NCCN(CC)CC)nc(SCCCCCC)n1 [S6N18 D7] | 5.2
CCCCCCCCCCCCCCCCCCNc1nc(NCCCN2CCOCC2)nc(SCCCCCC)n1 [S6N18 D8] | 8.1
CCCCCCCCCCCCCCCCCCNc1nc(NCCCN2CCN(C)CC2)nc(SCCCCCC)n1 [S6N18 D9] | 14.1
CCCCCCCCCCCCCCCCCCNc1nc(NCC2CCN(C)CC2)nc(SCCCCCC)n1 [S6N18 D10] | 13.0
CCCCCCSc1nc(NCCN(C)C)nc(SCCCCCC)n1 [S6S6 D1] | 1.1

Structure (SMILES) | Absolute DNA transfection efficiency in HEK293 cells [%]
CCCCCCSc1nc(NCCN2CCOCC2)nc(SCCCCCC)n1 [S6S6 D2] | 0.4
CCCCCCSc1nc(NCCN2CCCC2)nc(SCCCCCC)n1 [S6S6 D3] | 4.4
CCCCCCSc1nc(NCCN2CCCCC2)nc(SCCCCCC)n1 [S6S6 D4] | 1.4
CCCCCCSc1nc(NCCN2CCN(C)CC2)nc(SCCCCCC)n1 [S6S6 D5] | 9.1
CCCCCCSc1nc(NCCCN(C)C)nc(SCCCCCC)n1 [S6S6 D6] | 12.5
CCCCCCSc1nc(NCCN(CC)CC)nc(SCCCCCC)n1 [S6S6 D7] | 23.0
CCCCCCSc1nc(NCCCN2CCOCC2)nc(SCCCCCC)n1 [S6S6 D8] | 0.8
CCCCCCSc1nc(NCCCN2CCN(C)CC2)nc(SCCCCCC)n1 [S6S6 D9] | 7.6
CCCCCCSc1nc(NCC2CCN(C)CC2)nc(SCCCCCC)n1 [S6S6 D10] | 21.6
CCCCCCCSc1nc(NCCN(C)C)nc(SCCCCCC)n1 [S6S7 D1] | 0.5
CCCCCCCSc1nc(NCCN2CCOCC2)nc(SCCCCCC)n1 [S6S7 D2] | 1.2
CCCCCCCSc1nc(NCCN2CCCC2)nc(SCCCCCC)n1 [S6S7 D3] | 1.4
CCCCCCCSc1nc(NCCN2CCCCC2)nc(SCCCCCC)n1 [S6S7 D4] | 2.0
CCCCCCCSc1nc(NCCN2CCN(C)CC2)nc(SCCCCCC)n1 [S6S7 D5] | 5.7
CCCCCCCSc1nc(NCCCN(C)C)nc(SCCCCCC)n1 [S6S7 D6] | 6.9
CCCCCCCSc1nc(NCCN(CC)CC)nc(SCCCCCC)n1 [S6S7 D7] | 22.2
CCCCCCCSc1nc(NCCCN2CCOCC2)nc(SCCCCCC)n1 [S6S7 D8] | 0.0
CCCCCCCSc1nc(NCCCN2CCN(C)CC2)nc(SCCCCCC)n1 [S6S7 D9] | 7.5
CCCCCCCSc1nc(NCC2CCN(C)CC2)nc(SCCCCCC)n1 [S6S7 D10] | 21.6
CCCCCCCCSc1nc(NCCN(C)C)nc(SCCCCCC)n1 [S6S8 D1] | 1.9

Structure (SMILES) | Absolute DNA transfection efficiency in HEK293 cells [%]
CCCCCCCCSc1nc(NCCN2CCOCC2)nc(SCCCCCC)n1 [S6S8 D2] | 2.5
CCCCCCCCSc1nc(NCCN2CCCC2)nc(SCCCCCC)n1 [S6S8 D3] | 2.8
CCCCCCCCSc1nc(NCCN2CCCCC2)nc(SCCCCCC)n1 [S6S8 D4] | 1.3
CCCCCCCCSc1nc(NCCN2CCN(C)CC2)nc(SCCCCCC)n1 [S6S8 D5] | 15.3
CCCCCCCCSc1nc(NCCCN(C)C)nc(SCCCCCC)n1 [S6S8 D6] | 7.4
CCCCCCCCSc1nc(NCCN(CC)CC)nc(SCCCCCC)n1 [S6S8 D7] | 15.0
CCCCCCCCSc1nc(NCCCN2CCOCC2)nc(SCCCCCC)n1 [S6S8 D8] | 0.6
CCCCCCCCSc1nc(NCCCN2CCN(C)CC2)nc(SCCCCCC)n1 [S6S8 D9] | 10.0
CCCCCCCCSc1nc(NCC2CCN(C)CC2)nc(SCCCCCC)n1 [S6S8 D10] | 24.1
CCCCCCCCCSc1nc(NCCN(C)C)nc(SCCCCCC)n1 [S6S9 D1] | 2.6
CCCCCCCCCSc1nc(NCCN2CCOCC2)nc(SCCCCCC)n1 [S6S9 D2] | 9.1
CCCCCCCCCSc1nc(NCCN2CCCC2)nc(SCCCCCC)n1 [S6S9 D3] | 6.9
CCCCCCCCCSc1nc(NCCN2CCCCC2)nc(SCCCCCC)n1 [S6S9 D4] | 1.8
CCCCCCCCCSc1nc(NCCN2CCN(C)CC2)nc(SCCCCCC)n1 [S6S9 D5] | 13.7
CCCCCCCCCSc1nc(NCCCN(C)C)nc(SCCCCCC)n1 [S6S9 D6] | 7.1
CCCCCCCCCSc1nc(NCCN(CC)CC)nc(SCCCCCC)n1 [S6S9 D7] | 10.2
CCCCCCCCCSc1nc(NCCCN2CCOCC2)nc(SCCCCCC)n1 [S6S9 D8] | 2.0
CCCCCCCCCSc1nc(NCCCN2CCN(C)CC2)nc(SCCCCCC)n1 [S6S9 D9] | 8.4
CCCCCCCCCSc1nc(NCC2CCN(C)CC2)nc(SCCCCCC)n1 [S6S9 D10] | 18.0
